Molecules are shown by their SMILES.

One assay is described as follows: Competitive inhibition of Hepatitis C virus NS3 helicase using nucleic acid as substrate. Set-up: species or system Hepacivirus hominis.
Broadly, the Ki is the dissociation constant of the complex between target and ligand, obtained from inhibition or displacement. Lower therefore signals a stronger hold on the target. As for `CCOc1ccc2c(NNC(=O)c3cnccn3)c3c(nc2c1)CCCC3`, the affinity corresponds to a Ki of 0.02 µM. In other words, the double-digit nanomolar range.

A short description of the next assay: Competitive inhibition of Hepatitis C virus NS3 helicase. Details: species or system Hepacivirus hominis.
As to `CCOc1ccc2c(NNS(=O)(=O)c3ccccn3)c3c(nc2c1)CCCC3`, the Ki worked out at 0.1 µM.

As to `CCOc1ccc2c(NNC(=O)c3cnccn3)cc(C)nc2c1`, the Ki was 0.75 µM. `CCOc1ccc2c(NNC(=O)c3ccccc3)cc(C)nc2c1` came in with an inhibitory constant (Ki) of 125 µM. Same read-out and setting: as for `CCOc1ccc2c(NNC(=O)c3ccco3)cc(C)nc2c1`, the figure is more than 300 µM; as for `CCOc1ccc2c(NNC(=O)[C@@H]3CSCN3)cc(C)nc2c1`, more than 300 µM. On the same count and under the same terms, as for `CCOc1ccc2c(NNC(=O)c3cc4ccccc4cn3)cc(C)nc2c1`, the figure is 250 µM; as for `CCOc1ccc2c(NNS(=O)(=O)c3ccccc3)cc(C)nc2c1`, 5 µM. Same read-out and setting: as for `CCOc1ccc2c(NNS(=O)(=O)c3ccc(C)cc3)cc(C)nc2c1`, the figure is 75 µM. Regarding `CCOc1ccc2c(NNS(=O)(=O)c3ccccn3)cc(C)nc2c1`, the Ki was found to be 0.3 µM. This Ki lies about 250-fold lower than the previous one.

For `Cc1cc(NNC(=O)c2cnccn2)c2ccccc2n1`, the Ki is more than 300 µM. Still for that read-out and setting: as for `CCOc1ccc2nc(C)cc(NNC(=O)c3cnccn3)c2c1`, the figure is more than 300 µM; as for `CCOc1ccc2c(NNC(=O)c3cnccn3)c3c(nc2c1)CCCC3`, 0.02 µM. Compound `O=C(NNc1c2c(nc3ccccc13)CCCC2)c1cnccn1` returned an inhibition constant (Ki) of more than 300 µM. Still for that read-out and setting: next, `CCOc1ccc2c(NNS(=O)(=O)c3ccccc3)c3c(nc2c1)CCCC3`: 0.16 µM.

The record behind these values is ChEMBL document CHEMBL1770144, “Discovery of potent nucleotide-mimicking competitive inhibitors of hepatitis C virus NS3 helicase” (Bioorg Med Chem Lett, 2011).
